Assay results published in patent US6379670B1, “Methods for treatment of multiple sclerosis using peptide analogs of human myelin basic protein” (Neurocrine Biosciences, Inc., priority 1994, dated 2002).
Entries after “also recorded” stand apart in the source; their conditions may differ. Non-standard residues stand in square brackets, D forms with d. No end group written: not given here.

Assays:
[1] = tested on: draining lymph node T cells of SJL mice; assay: Induction of Th2 response in SJL mice, ex vivo lymph node cell proliferation; set-up: species or system mouse
Protocol: SJL/J female mice (3 per group) were injected weekly on days 0, 7, 14 and 21 subcutaneously with 20 mg/kg of NBI-5788 in the flanks. On day 28, the mice were sacrificed, the draining lymph node removed, a single cell suspension was made and the ability of the cells to proliferate in response to 25 μM NBI-5788 was determined. The data, shown in FIG. 28, represent the mean of triplicate wells.

[2] = tested on: T cell cultures from multiple sclerosis patients; assay: Th2/Th1 (IL-13/IFN-γ) activity of T cell cultures of MS patients by dose group; format: in vivo, human; details: 1, 5 and 20 mg dose groups, weeks 3, 5 and 8; most prominently in the 5 and 20 mg dose groups, FIG. 34
Protocol: T cell analyses (cytokine production) were performed at Week 1 (pre-dosing), at Week 3 (=just prior to third dose), at Week 5 (1 week after last dose) and Week 8 (4 weeks after last dose). Tritiated thymidine uptake was measured using a beta scintillation counter (Topcount, Packard).
Interferon-γ(marker for Th1 activity) and IL-13 (marker for Th2 activity) were measured by Enzyme-Linked Immuno-Assay (ELISA) in T cell culture supernatants collected prior to [^3H]-thymidine incorporation (proliferation assay).
To measure IFN-γ produced by T cell cultures, a sandwich ELISA method was employed. Microtiter plates were coated with 2 μg/ml capture antibody (Pharmingen, San Diego) in 0.1 M NaHCO3 (pH=8.2) overnight at 4° C. Plates were then incubated with blocking buffer (1% solution [w/v] of casein [Sigma] in water, pH=8.2) for at least 30 minutes at room temperature to block non-specific binding sites. […] The reaction was stopped by the addition of 0.2N H2SO4 and absorbance at 450 nm was determined using a microplate spectrophotometer (Molecular Dynamics, Sunnyvale, Calif., USA). […]
To measure IL-13 produced by T cell cultures, a sandwich ELISA method was employed. […] The reaction was stopped by the addition of 0.2N H2SO4 and absorbance at 450 nm was determined using a microplate spectrophotometer (Molecular Dynamics, Sunnyvale, Calif., USA). […]

[3] = tested on: peripheral blood T cells of MS patients; assay: Frequency of antigen-reactive peripheral blood T cells after NBI-5788 treatment of MS patients (split-well); format: in vivo, human
Protocol: MS patients studied were those participating in phase I clinical trials using NBI-5788 administered subcutaneously (5, 10 or 20 mg) weekly for four weeks. Patients had MRI evaluations performed at baseline and at 6 and 12 weeks. All but 1 patient had secondary or primary progressive disease (SP or PP, respectively). For patients in group A, immunologic evaluations involving use of NBI-5788 as antigen could be performed only 9 months after completion of the treatment phase of the study. For patients in group B, immunologic evaluation was performed just prior to entry into the study (pre-treatment) and after 3 months following completion of the 1 month treatment phase. Two additional patients with SP MS, one with relapsing remitting (RR) MS and 3 normal controls were also studied.
Immune response to the peptide analog was assessed by measuring the frequency of proliferating peripheral blood T cells using a split-well microtiter method (i.e., number of positive wells {Δ cpm >1000, stimulation index>3} divided by the total number of wells assayed). Peripheral blood mononuclear cells (PBMC) were isolated from venous blood by Ficoll-Hypaque density gradient centrifugation, washed twice and resuspended in complete tissue culture medium (Iscove's modification of Dulbecco's medium containing 10% heat-inactivated, pooled, human A-B serum, 2 mM L-glutamine, 100 U/ml penicillin/streptomycin and 50 μg/ml gentamycin). PBMC from each patient were seeded at 10^5/well in 96 well, U-bottom microtiter plates containing 25 μg/ml whole MBP, 10 μg/ml NBI-5788 or medium alone in a volume of 200 μl. Three days later supernatants were collected and frozen at −80° C. and fresh medium containing IL-2 (10 U/ml) was added. IL-2-containg medium was refreshed on Day 7 and Day 11. On Day 14, the frequency of antigen response was determined by the “split well” technique. Briefly, cells from one primary well were split into replicate experimental wells in the presence of 10^5 freshly isolated autologous, irradiated peripheral blood mononuclear cells (APCs): one containing the original antigen (25 μg/ml) and one without antigen. Two days later supernatants were collected and the wells pulsed with 1 µCi/well [^3H]-thymidine ([…]) for the final 18 hours of culture. ^3H-Thymidine uptake was measured in a beta counter. […] The association between T cell frequency and NBI-5788 treatment was evaluated by χ^2 contingency analysis.

For “MBP(83-99) (83E>a, 84N>K, 89F>L, and 91K>A) ([dA]KPVVHLFANIVTPRTP) [NBI-5788]”, the “immune response induced by repeated dosing” value ([1]; 20 mg/kg subcutaneously on days 0, 7, 14 and 21, ex vivo proliferation to 25 μM NBI-5788, FIG. 28) was “induces a Th2 response”, the “response with successive weekly doses” value ([1]; four doses at weekly intervals) was “stronger response after each subsequent dose” and the “ratio of overall Th2-type to overall Th1-type activities (IL-13/IFN-γ)” value [2] was “clear shift to an overall Th2 activity”. For the same substance, the “mean frequency of NBI-5788-reactive T cells after treatment” value ([3]; 5, 10 or 20 mg, four times weekly, seven MS patients) was 35.8±12.8%, the “mean frequency of MBP-reactive T cells after treatment” value ([3]; after treatment with NBI-5788 (n=7)) was 16.4±5.7% and the “change of frequency of MBP-reactive T cells following administration” value ([3]; human, in vivo) was “does not change markedly”. The “change of NBI-5788-reactive T cells in peripheral blood after subcutaneous administration versus untreated MS patients” value ([3]; human, in vivo, sc) was “significant (χ^2=82.7, p<0.001) increase; also recorded: strongly induced”.
